Assays:
[1] = test system: experimental model of non-insulin-dependent diabetes induced in the rat by streptozotocin; test: Study of the antidiabetic activity in the rat (glycaemia, oral route); format: in vivo; settings: diabetic rats 8 weeks old; for % of glycaemia at D1 (percentage of change in the glycaemia with respect to D0): after treatment for 1 day; for % of glycaemia at D4 (percentage of change in the glycaemia with respect to D0): after treatment for 4 days
Method: The antidiabetic activity of the compounds of formula I by the oral route was determined on an experimental model of non-insulin-dependent diabetes induced in the rat by streptozotocin.
The model of non-insulin-dependent diabetes is obtained in the rat by a neonatal injection (on the day of birth) of streptozotocin.
The diabetic rats used are 8 weeks old. The animals are kept, from the day of their birth to the day of the experiment, in an animal house at a regulated temperature of 21 to 22° C. and are subjected to a fixed cycle of light (from 7 h to 19 h) and of darkness (from 19 h to 7 h). Their diet consisted of a maintenance diet; water and food were provided “ad libitum”, with the exception of the 2 hours of fasting preceding the tests, where food is withdrawn (post-absorptive state).
The rats are treated by the oral route, during the day, with the test product. Two hours after the final administration of the product and 30 minutes after anaesthetizing the animals with sodium pentobarbital (Nembutal®), a 300-μl blood sample is withdrawn at the end of the tail in order to determine the glycaemia.
at D1 (after treatment for 1 day) with respect to D0 (before treatment); and
at D4 (after treatment for 4 days) with respect to D0 (before treatment) for 2 different administration doses (20 mg/kg/day and 200 mg/kg/day) of active principle.

[2] = test system: experimental model of non-insulin-dependent diabetes induced in the rat by streptozotocin; test: Study of the hypolipidaemic activity in the rat (total cholesterol, total triglycerides); format: in vivo; settings: oral route for 7 days, sample 18 h after final administration, diabetic rats 6 months old
Method: The hypolipidaemic activity of the compounds of formula I by the oral route was determined on an experimental model of non-insulin-dependent diabetes induced in the rat by streptozotocin.
The model of non-insulin-dependent diabetes is obtained in the rats by a neonatal injection (5 days after birth) of streptozotocin.
The diabetic rats used are 6 months old. The animals are kept, from the day of their birth to the day of the experiment, in an animal house at a regulated temperature of 21 to 22° C. and are subjected to a fixed cycle of light (from 7 h to 19 h) and of darkness (from 19 h to 7 h).
Their diet consisted of a maintenance diet; water and food were provided “ab [sic] libitum”, with the exception of the 18 hours of fasting preceding the withdrawals of the blood samples on which the lipid balances will be carried out.
The rats are treated by the oral route with the compound of Example 1 for 7 days. A 300-μl sample is withdrawn 18 h after the final administration of this compound.
The total cholesterol was quantitatively determined by the CHOE/CHOD/POD Trinder method as an end point (Instrumentation Laboratory reagent [lacuna] on a Monarch plus analyser (Instrumentation Laboratory).
The total triglycerides were quantitatively determined by the GPO/Trinder method as an end point (Sigma Diagnostic reagent) on a Monarch analyser (Instrumentation Laboratory).

COc1cccc(N2CCN(CCOc3ccc(CC(=O)O)cc3)CC2)c1 [Example 1, (4-{2-[4-(3-methoxyphenyl)-piperazin-1-yl]ethoxy}phenyl) acetic acid]
melting point: 158 to 160 °C
% of glycaemia at D1 (percentage of change in the glycaemia with respect to D0) ([1]; 20 mg/kg/day): −8%
% of glycaemia at D4 (percentage of change in the glycaemia with respect to D0) ([1]; 20 mg/kg/day): −10%
% of glycaemia at D1 (percentage of change in the glycaemia with respect to D0) ([1]; 200 mg/kg/day): −24%
% of glycaemia at D4 (percentage of change in the glycaemia with respect to D0) ([1]; 200 mg/kg/day): −34%
TOTAL CHOLESTEROL ([2]; in the absence of treatment 90): 79 mg/dL
TOTAL TRIGLYCERIDES ([2]; in the absence of treatment 167): 102 mg/dL
